Experimental data reported in patent US20080317876A1, “USE OF A MAGNESIUM ISOTOPE FOR TREATING HYPOXIA AND A MEDICAMENT COMPRISING THE SAME” (priority 2007, published 2008).
≈ marks a conversion by molar mass, not a printed value.

Tests used:
Cationite capacity = assay type: physicochemical
[1] = test system: heart muscle tissue (rat myocardium) under hypoxia; assay type: in vivo
Description: Same tests were also performed in inhalation hypoxia model specified below (FIG. 14-16).
The following in vivo experimental hypoxia models were employed:
(1) Medicinal hypoxia syndrome A (1-methylnicotineamide (MNA), 10-20 mg/kg i.v. once per 24 hrs); […] (2) Medicinal hypoxia syndrome B (DXR 60-80 mg/kg i.v. once per 24 hrs); (3) The oxygen depleted inhalation model (10-20 day long exposition of rats to the artificial gas mixture to breath with, 12-16% oxygen/84-88% nitrogen, v/v).
Male adult Wistar Albino Glaxo rats (180-220 gms) were used, 3-4 animals per each experimental point.

[2] = test system: heart muscle mitochondria membranes; test: Retention of the drug by heart muscle mitochondria membranes after a single i.v. injection; assay type: in vivo
[3] = unmodified C60-fullerene; cited from earlier work

Molecule | cationite capacities (Cationite capacity) | protecting the heart muscle tissue from the damaging impact promoted by hypoxia ([1]; hypoxia of any sort, even at extra low doses) | safety of long term multiple administration of extra low doses ([1]; in vivo) | effect in medicinal hypoxic cardiotoxicity cases (DXR, MNA) ([1]; long term multiple administration, extra low doses) | time the drug molecule is retained by heart muscle mitochondria membranes [2] | solubility [3] [ng/mL]
fullerene (C60)-2-(butadiene-1-yl)tetra(o-γ-aminobutyryl-o-phtalyl)ferroporphyrin [PMC16] | 320-370 meqv/mmol | efficient | totally safe | marked prophylactic and therapeutic effect | not less than a week | –
c12c3c4c5c1c1c6c7c2c2c8c3c3c9c4c4c%10c5c5c1c1c6c6c%11c7c2c2c7c8c3c3c8c9c4c4c9c%10c5c5c1c1c6c6c%11c2c2c7c3c3c8c4c4c9c5c1c1c6c2c3c41 [C60-fullerene] | – | – | – | – | – | 1.3e-05 (≈ 1.8e-05 nM)
